In publication PMC2873862 (Journal of neuroimmunology, 2009):

How the values were obtained:
Test in all cases: radioligand displacement
[1] = molecular target: Angiotensin AT1 (Homo sapiens, UniProt P30556); type: binding
[2] = molecular target: Neuropeptide Y1 (Homo sapiens, UniProt P25929); type: binding
[3] = molecular target: Chemokine CCR1 (Homo sapiens, UniProt P32246); type: binding
[4] = molecular target: Serotonin 5-HT1A (Homo sapiens, UniProt P08908); type: binding
[5] = molecular target: Serotonin 5-HT1_5A (Homo sapiens, UniProt P47898); type: binding
[6] = molecular target: Adrenergic α1D (Homo sapiens, UniProt P25100); type: binding
[7] = molecular target: Bradykinin B1 (Homo sapiens, UniProt P46663); type: binding; conditions: vs [3H]des Arg10 Kallidin; bound from single concentration […]
Sequence of Bradykinin B1 (P46663 whole entry): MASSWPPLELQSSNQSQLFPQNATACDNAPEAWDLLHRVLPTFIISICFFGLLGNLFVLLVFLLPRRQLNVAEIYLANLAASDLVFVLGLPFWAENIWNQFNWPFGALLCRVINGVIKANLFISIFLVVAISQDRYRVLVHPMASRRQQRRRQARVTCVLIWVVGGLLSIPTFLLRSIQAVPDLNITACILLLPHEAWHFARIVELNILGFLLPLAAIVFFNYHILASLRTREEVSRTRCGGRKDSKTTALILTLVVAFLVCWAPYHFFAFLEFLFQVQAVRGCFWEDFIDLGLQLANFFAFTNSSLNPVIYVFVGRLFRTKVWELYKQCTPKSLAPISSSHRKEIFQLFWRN

[8] = molecular target: Cannabinoid CB2 (Homo sapiens, UniProt P34972); type: binding
Sequence of Cannabinoid CB2 (P34972 whole entry): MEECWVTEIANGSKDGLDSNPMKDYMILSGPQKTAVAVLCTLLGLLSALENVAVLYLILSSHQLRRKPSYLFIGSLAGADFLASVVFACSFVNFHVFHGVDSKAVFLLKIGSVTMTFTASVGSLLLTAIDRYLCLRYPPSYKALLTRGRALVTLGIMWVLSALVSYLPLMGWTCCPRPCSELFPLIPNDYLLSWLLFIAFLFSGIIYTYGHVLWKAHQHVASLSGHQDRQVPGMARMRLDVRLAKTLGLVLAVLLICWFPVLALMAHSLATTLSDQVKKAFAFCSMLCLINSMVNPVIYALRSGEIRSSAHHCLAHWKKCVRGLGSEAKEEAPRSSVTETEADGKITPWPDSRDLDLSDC

[9] = molecular target: Endothelin ETA (Homo sapiens, UniProt P25101); type: binding
Sequence of Endothelin ETA (P25101 21-427): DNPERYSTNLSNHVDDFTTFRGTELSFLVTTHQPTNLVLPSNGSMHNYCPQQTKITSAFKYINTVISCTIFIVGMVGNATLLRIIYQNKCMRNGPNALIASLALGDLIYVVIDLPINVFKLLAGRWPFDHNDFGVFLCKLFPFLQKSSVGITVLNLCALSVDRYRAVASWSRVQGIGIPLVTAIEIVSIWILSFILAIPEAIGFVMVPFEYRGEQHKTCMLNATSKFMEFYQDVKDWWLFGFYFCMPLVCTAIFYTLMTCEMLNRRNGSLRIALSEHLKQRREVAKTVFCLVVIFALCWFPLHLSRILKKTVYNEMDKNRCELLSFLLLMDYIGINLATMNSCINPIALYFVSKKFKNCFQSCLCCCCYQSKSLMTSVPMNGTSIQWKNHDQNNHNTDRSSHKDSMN

[10] = molecular target: Muscarinic M3 (Homo sapiens, UniProt P20309); type: binding
Sequence of Muscarinic M3 (P20309 whole entry): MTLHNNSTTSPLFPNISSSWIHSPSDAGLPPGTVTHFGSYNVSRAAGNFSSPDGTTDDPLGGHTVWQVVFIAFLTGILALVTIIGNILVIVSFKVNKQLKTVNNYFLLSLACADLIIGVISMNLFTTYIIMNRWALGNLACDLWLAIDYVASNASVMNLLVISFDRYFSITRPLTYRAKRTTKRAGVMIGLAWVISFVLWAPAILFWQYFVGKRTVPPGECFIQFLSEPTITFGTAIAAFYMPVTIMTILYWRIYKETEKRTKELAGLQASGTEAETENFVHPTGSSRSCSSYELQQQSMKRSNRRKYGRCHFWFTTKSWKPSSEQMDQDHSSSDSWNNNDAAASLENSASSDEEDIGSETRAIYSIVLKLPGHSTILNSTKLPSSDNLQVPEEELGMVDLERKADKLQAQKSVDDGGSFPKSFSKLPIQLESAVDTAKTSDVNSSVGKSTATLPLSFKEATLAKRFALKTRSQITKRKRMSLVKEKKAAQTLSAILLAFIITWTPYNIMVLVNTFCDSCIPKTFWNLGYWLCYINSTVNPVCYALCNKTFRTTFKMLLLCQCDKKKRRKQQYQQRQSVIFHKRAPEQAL

[11] = molecular target: Tachykinin NK1 (Homo sapiens, UniProt P25103); type: binding
Sequence of Tachykinin NK1 (P25103 whole entry): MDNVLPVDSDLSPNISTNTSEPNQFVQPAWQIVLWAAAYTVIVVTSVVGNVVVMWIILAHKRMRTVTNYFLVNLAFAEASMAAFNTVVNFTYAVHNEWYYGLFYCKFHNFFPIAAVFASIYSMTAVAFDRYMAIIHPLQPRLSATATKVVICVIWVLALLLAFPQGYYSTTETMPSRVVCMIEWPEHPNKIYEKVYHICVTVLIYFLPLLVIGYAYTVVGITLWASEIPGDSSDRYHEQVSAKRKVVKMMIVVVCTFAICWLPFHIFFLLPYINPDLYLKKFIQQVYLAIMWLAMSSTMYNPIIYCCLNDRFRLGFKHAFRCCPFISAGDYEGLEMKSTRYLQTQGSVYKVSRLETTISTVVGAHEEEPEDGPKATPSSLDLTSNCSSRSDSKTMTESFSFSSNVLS

[12] = molecular target: Opiate σ(OP1) (Homo sapiens, UniProt P41143); type: binding
Sequence of Opiate σ(OP1) (P41143 whole entry): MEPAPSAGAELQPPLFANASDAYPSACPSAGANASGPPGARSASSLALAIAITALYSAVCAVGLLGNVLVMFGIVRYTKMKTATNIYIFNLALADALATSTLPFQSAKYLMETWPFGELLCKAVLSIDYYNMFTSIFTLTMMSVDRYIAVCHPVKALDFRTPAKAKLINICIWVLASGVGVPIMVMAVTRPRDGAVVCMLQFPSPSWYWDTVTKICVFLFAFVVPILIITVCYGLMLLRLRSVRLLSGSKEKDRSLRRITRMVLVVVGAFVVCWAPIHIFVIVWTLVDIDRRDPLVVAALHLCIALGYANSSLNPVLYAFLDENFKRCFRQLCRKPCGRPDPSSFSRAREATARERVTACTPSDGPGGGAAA

[13] = molecular target: Histamine H1 (Homo sapiens, UniProt P35367); type: binding
Sequence of Histamine H1 (P35367 whole entry): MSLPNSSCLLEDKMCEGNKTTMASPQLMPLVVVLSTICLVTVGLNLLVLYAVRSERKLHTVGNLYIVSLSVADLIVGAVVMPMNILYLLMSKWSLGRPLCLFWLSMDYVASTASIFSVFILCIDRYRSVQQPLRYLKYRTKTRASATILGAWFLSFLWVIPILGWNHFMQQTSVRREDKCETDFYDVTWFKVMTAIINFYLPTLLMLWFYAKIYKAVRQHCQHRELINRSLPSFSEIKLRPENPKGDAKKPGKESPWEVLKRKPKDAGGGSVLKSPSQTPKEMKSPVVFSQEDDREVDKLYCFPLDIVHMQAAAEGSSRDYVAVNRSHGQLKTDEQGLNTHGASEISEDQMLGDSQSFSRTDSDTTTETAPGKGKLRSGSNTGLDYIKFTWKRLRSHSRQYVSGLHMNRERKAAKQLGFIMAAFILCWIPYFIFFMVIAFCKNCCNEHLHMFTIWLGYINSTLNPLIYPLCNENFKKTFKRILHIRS

[14] = molecular target: Neurotensin NT1 (Homo sapiens, UniProt P30989); type: binding
Sequence of Neurotensin NT1 (P30989 whole entry): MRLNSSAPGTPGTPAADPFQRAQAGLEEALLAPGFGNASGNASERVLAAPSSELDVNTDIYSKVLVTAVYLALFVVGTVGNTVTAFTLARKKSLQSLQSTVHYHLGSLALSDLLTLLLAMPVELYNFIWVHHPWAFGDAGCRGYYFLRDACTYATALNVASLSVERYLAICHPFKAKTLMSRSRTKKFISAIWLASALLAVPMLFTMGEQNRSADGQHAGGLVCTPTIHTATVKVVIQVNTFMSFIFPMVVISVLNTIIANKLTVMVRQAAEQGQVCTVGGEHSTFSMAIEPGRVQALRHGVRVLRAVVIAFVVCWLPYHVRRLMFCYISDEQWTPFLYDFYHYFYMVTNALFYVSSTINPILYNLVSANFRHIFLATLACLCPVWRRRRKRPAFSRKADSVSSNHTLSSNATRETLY

[15] = molecular target: Adrenergic β1 (Homo sapiens, UniProt P08588); type: binding
[16] = molecular target: Chemokine CCR5 (Homo sapiens, UniProt P51681); type: binding
Sequence of Chemokine CCR5 (P51681 whole entry): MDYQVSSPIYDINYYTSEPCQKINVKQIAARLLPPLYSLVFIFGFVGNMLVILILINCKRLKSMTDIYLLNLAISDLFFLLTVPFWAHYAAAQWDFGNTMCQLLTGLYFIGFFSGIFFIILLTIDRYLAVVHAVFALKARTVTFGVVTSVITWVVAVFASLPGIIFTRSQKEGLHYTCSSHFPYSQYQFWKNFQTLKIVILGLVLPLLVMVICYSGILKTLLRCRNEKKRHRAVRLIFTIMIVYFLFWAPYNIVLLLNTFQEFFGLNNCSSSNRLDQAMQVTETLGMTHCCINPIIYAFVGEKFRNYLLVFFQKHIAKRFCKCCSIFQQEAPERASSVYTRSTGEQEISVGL

[17] = molecular target: Estrogen ERβ (Homo sapiens, UniProt Q92731)
[18] = molecular target: Dopamine D2L (Homo sapiens, UniProt P14416); type: binding
[19] = molecular target: Dopamine D3 (Homo sapiens, UniProt P35462); type: binding
[20] = molecular target: Adenosine A1 (Homo sapiens, UniProt P30542); type: binding
[21] = molecular target: Leukotriene CysLT1 (Homo sapiens, UniProt Q9Y271); type: binding
Sequence of Leukotriene CysLT1 (Q9Y271 whole entry): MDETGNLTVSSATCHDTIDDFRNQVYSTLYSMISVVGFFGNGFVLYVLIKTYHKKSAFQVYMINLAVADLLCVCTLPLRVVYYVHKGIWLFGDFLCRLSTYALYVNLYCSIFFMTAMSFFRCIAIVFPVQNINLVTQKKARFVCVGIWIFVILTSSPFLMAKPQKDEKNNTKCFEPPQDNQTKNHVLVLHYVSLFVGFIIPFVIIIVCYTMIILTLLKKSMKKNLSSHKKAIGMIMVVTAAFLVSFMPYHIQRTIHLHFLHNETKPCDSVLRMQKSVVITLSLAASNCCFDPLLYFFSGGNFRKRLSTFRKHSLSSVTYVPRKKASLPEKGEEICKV

[22] = molecular target: Muscarinic M1 (Homo sapiens, UniProt P11229); type: binding
[23] = molecular target: Somatostatin sst1 (Homo sapiens, UniProt P30872)
Sequence of Somatostatin sst1 (P30872 whole entry): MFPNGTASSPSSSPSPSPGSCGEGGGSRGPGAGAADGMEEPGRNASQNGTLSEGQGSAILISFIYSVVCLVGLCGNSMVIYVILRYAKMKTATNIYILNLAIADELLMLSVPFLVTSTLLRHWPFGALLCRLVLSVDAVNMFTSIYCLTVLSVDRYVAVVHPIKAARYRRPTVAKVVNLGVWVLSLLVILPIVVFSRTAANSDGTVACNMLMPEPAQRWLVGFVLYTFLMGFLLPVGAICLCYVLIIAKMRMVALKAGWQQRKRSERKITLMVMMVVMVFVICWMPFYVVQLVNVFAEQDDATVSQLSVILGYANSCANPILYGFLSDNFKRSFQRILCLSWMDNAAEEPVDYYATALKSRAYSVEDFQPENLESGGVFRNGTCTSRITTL

Measured: IC50

Sequence of Neuropeptide Y1 (P25929 whole entry): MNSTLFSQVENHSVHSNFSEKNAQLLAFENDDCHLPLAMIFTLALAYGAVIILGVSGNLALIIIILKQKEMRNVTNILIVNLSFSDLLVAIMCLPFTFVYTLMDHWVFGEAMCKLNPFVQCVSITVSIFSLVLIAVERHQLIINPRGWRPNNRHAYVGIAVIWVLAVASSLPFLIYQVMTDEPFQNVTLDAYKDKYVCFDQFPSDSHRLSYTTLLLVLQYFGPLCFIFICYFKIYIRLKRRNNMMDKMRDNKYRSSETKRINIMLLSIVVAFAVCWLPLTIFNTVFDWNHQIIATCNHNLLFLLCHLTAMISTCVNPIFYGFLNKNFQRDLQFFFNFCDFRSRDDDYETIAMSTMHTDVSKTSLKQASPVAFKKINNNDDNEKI

CC(=O)c1ccc2c(c1)C1C=CCC1C(c1cc3c(cc1Br)OCO3)N2 (centres unmarked) [G-1, 1-[4-(6-bromobenzo[1,3]dioxol-5-yl)-3a,4,5,9b-tetrahydro-3H-cyclopenta[c]quinolin-8-yl]-ethanone]
> 10 µM: all assays above
